Data: US20090088461A1, “Methods of Treating or Preventing Cardiac Disease Associated With a High Fat Diet” (Synvista Therapeutics, Inc., priority 2007, published 2009)
pIC50: −log10 of the molar value. Read-outs that look alike come from different tables or passages of the source.

Experiments:
[1] = system: IgG crosslinked to circulating red blood cells; assay: RBC-IgG assay; type: in vivo; details: streptozotocin-induced diabetic rats, dosed orally 10 mg/kg body weight, 19 days
Excerpt: 2. […] 3. […] 4. […] 5. […] 6. […] 7. […] 8.
10. […] 11. […] 12. […] 13. […] 14. […] 15. […] 16. […] 17.

[2] = target: cross-linking of glycated bovine serum albumin (AGE-BSA) to the rat tail tendon collagen-coated 96-well plate (Bos taurus, UniProt P02769); assay: Cross-Linking Inhibition Assay; details: for inhibition at 10000 µM: read-out: Relative Cross-link Inhibition (at 10 mM)
Protocol: The following method was used to evaluate the ability of the compounds of the present invention to inhibit the cross-linking of glycated bovine serum albumin (AGE-BSA) to the rat tail tendon collagen-coated 96-well plate.
The blocking solution was removed from the wells by, washing the plate twice with PBS-'Tween 20 solution (0.05% Tween 20) using a NUNq-multiprobe or Dynatech ELISA-plate washer. Cross-linking of AGE-BSA (1 to 10 mg per well depending on the batch of AGE-BSA) to rat tail tendon collagen coated plate was performed with and without the testing ‘compound dissolved in PBS buffer at pH 7.4 at the desired concentrations by the, addition of 50 μl each of the AGE-BSA diluted in PBS or in the solution of test compound at 37° C. for 4 hours.
Unbrowned BSA in PBS buffer with or without testing compound were added to the separate wells as the blanks. The un-cross-linked AGE-BSA was then removed by washing the wells three times with PBS-Tween buffer. The amount of AGE-BSA cross-linked to the tail tendon collagen-coated plate was then quantitated using a polyclonal antibody raised against AGE-RNase. After a one-hour incubation period, AGE antibody was removed by washing 4 times with PBS-Tween.
The bound AGE antibody was then detected with the addition of horseradish peroxidase-conjugated secondary antibody—goat anti-rabbit immunoglobulin and incubation for 30 minutes. […] The reaction was allowed for an additional 15 minutes and the absorbance was read at 410 nm in a Dynatech plate reader.

[3] = target: T1, AGE-BSA previously crosslinked to the collagen (Bos taurus, UniProt P02769); assay: Cross-Link Breaking Assay (sandwich enzyme immunoassay); type: biochemical; details: for Breaking Anti-AGE: anti-AGE antibody; for Breaking Anti-BSA: anti-BSA antibody
T1 construct: Bovine Serum Albumin (Type V), (BSA) Calbiochem; purchased Calbiochem (BSA Type V); Collaborative Biomedical Products (Biocoat collagen plates)
Protocol: The present invention also involves a novel sandwich enzyme immunoassay used to ascertain the ability of test compounds to “break” or reverse already formed advanced glycosylation endproducts by detecting the breaking of AGE (Advanced glycosylation endproduct) moieties from AGE-crosslinked protein. This assay comprises:
a) incubation of AGE-modified bovine serum albumin (AGE BSA) on collagen-coated wells of microtiter plates for a period of 2-6 hours' at a temperature of 37° C.
b) washing of the wells with PBS-Tween;
c) application of the test compounds to the washed wells of step b;
d) incubation of the test compounds applied to the washed wells for an additional 12-24 hours at a temperature of about 37° C.; and
e) detection of the AGE-breaking using an antibody raised against AGE-ribonuclease or cross-link breaking with an antibody against BSA.
In order to ascertain the ability of the compounds of the instant invention to “break” or reverse already formed advanced glycosylation endproducts, a novel sandwich enzyme immunoassay was developed which detects breaking of AGE (Advanced glycosylation endproduct) moieties from AGE-crosslinked protein. The assay utilizes collagen-coated 96 well microtiter plates that are obtained commercially. […] Following an incubation period of 16 hours (37° C.) cross-link-breaking is detected using an antibody raised against AGE-ribonuclease or with an antibody against BSA. […] Details of the assay are as follows:
1. AGE-BSA stock solutions were prepared as follows. Sodium phosphate buffer (0.4 M) was prepared by dissolving 6 grams of monobasic sodium phosphate in 100 ml of distilled water, 7 grams of dibasic sodium phosphate (0.4 M) in 100 ml of distilled water and adjusting the pH of the dibasic solution to 7.4 with the monobasic solution. Sodium azide (0.02 grams) was added per 100 ml volume to inhibit bacterial growth. The BSA solution was prepared as follows: 400 mg of Type V BSA (bovine serum albumin) was added for each ml of sodium phosphate buffer (above). A 400 mM glucose solution was prepared by dissolving 7.2 grams of dextrose in 100 ml of sodium phosphate buffer (above). The BSA and glucose solutions were mixed 1:1 and incubated at 37° C. for 12 weeks. The pH of the incubation mixture was monitored weekly and adjusted to pH 7.4 if necessary. After 12 weeks, the AGE-BSA solution was dialyzed against PBS for 48 hours with four buffer changes, each at a 1:500 ratio of solution to dialysis buffer. Protein concentration was determined by the micro-Lowry method. The AGE-BSA stock solution was aliquoted and stored at −20° C.
2. Working solutions for crosslinking and breaking studies were prepared as follows. Test compounds were dissolved in PBS and the pH was adjusted to pH 7.4 if necessary. AGE-BSA stock solution was diluted in PBS to measure maximum crosslinking and in the inhibitor solution for testing inhibitory activity of compounds. The concentration of AGE-BSA necessary to achieve the optimum sensitivity was determined by initial titration of each lot of AGE-BSA.
3. Wash buffer (“PBS-Tween”) was, prepared as follows. PBS was prepared by dissolving the following salts in one liter of distilled water: NaCl, 8 grams; KCl, 0.2 gram, KH2PO4. […] Tween-20 was added to a final concentration of 0.05% (vol/vol).
4. Substrates for detection of secondary antibody binding were prepared by diluting the HRP substrate buffer 1:10 in distilled water and mixing with ABTS chromogen 1:50 just prior to use.
1. Biocoat plates were blocked with 300 μl of “Superbloc”. Plates were blocked for one hour at room temperature and were washed with PBS-Tween three times with the Dynatech platewasher before addition of test reagents.
2. Each experiment was set up in the following manner. The first three wells of the Biocoat plate were used for the reagent blank. Fifty microliters of solutions AGE-BSA were added to test wells in triplicate and only PBS in blank wells.

[4] = Reaction with 1-phenyl-1,2-propanedione
[5] = target: AGE-crosslinks that form when AGE-modified BSA (AGE-BSA) is allowed to react with unmodified, native collagen (Bos taurus, UniProt P02769); assay: Release of BSA from pre-formed AGE-BSA/collagen complexes; type: biochemical
Excerpt: Once early, addition products form on proteins, further reactions can ensue to effect a covalent, protein-protein crosslinking reaction. In this regard, a compound of the formula I, N-phenacylthiazolium bromide, was allowed to react with the AGE-crosslinks that form when AGE-modified BSA (AGE-BSA) is allowed to react with unmodified, native collagen. […] Again, this confirmed that a significant portion of the AGE-crosslinks that form under experimental conditions consist of an α-diketone or related structure that is susceptible to cleavage by the advantageous bidentate-type molecules of the compounds of formula I under physiological conditions.

[6] = detection with anti-AGE antibody, read-out: IC50 (mM) Anti-AGE

T1 sequence (P02769 25-607): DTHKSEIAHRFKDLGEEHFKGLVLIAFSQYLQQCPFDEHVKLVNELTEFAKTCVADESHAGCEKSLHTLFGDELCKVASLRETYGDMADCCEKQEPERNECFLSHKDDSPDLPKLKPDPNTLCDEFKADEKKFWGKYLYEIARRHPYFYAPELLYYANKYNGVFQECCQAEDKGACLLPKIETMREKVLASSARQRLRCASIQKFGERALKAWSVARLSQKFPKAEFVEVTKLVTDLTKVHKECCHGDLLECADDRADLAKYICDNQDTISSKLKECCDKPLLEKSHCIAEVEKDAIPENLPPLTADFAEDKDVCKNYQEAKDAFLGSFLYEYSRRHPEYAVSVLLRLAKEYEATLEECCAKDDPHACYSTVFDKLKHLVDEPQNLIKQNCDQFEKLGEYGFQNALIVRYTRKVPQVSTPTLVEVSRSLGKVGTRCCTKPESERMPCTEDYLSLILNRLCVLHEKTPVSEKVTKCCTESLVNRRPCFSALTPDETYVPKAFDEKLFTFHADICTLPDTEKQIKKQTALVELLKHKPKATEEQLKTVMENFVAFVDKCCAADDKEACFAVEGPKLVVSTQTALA
T1 sequence (P02454 152-1207 partner limits assumed): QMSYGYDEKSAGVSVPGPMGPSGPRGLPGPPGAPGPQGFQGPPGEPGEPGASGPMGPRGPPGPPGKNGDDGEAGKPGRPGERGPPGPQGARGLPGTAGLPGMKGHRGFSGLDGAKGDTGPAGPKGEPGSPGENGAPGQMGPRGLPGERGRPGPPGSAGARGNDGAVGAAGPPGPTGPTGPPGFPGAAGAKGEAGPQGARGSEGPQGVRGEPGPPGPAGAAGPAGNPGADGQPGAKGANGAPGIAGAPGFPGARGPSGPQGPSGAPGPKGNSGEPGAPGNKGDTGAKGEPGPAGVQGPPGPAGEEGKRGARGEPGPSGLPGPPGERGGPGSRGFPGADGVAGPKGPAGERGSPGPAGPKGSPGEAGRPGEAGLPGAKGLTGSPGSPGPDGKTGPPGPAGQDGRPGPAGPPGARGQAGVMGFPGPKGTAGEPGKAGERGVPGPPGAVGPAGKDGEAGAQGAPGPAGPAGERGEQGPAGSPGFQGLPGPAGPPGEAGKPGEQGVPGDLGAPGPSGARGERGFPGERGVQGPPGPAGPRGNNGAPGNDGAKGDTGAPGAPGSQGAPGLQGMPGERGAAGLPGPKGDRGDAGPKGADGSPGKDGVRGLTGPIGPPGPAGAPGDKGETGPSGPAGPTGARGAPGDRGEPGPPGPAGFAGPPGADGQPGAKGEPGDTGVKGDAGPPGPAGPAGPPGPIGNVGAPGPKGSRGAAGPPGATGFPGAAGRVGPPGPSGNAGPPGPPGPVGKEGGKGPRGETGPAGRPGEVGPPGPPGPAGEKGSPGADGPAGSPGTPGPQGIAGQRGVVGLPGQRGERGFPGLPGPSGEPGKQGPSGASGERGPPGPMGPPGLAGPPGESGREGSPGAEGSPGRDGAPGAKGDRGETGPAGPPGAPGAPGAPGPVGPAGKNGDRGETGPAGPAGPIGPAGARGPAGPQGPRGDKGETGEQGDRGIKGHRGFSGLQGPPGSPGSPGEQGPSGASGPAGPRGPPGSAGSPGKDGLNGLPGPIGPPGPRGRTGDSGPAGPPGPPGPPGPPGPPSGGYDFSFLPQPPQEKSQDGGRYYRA
T1 sequence (P02466 86-1125 partner limits assumed): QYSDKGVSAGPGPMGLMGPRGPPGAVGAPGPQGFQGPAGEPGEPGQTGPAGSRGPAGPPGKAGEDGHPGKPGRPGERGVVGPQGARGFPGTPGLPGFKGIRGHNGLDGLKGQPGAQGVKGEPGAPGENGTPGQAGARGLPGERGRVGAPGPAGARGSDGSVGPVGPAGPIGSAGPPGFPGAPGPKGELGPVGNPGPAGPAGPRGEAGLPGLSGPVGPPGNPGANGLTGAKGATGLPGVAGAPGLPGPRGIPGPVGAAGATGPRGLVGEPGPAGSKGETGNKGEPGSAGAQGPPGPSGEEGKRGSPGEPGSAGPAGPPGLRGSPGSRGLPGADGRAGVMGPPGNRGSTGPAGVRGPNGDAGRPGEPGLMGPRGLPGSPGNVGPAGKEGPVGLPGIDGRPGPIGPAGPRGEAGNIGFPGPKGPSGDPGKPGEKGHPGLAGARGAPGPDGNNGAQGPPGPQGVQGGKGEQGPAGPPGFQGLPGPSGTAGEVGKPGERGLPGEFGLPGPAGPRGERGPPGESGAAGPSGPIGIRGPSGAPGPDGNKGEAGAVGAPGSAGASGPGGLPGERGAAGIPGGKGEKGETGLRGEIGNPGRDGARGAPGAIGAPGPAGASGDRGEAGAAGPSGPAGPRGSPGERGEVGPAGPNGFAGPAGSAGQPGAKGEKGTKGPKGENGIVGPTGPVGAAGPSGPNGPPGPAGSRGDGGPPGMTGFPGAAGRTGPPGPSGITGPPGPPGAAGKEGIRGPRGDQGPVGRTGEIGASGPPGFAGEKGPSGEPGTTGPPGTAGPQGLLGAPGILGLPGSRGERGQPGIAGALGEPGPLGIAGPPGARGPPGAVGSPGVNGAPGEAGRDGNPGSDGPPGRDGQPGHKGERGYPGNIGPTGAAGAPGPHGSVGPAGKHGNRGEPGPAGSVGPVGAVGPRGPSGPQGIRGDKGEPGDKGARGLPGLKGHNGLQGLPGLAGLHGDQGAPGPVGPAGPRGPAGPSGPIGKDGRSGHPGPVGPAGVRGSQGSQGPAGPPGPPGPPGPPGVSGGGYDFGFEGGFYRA
Chain of cross-linking of glycated bovine serum albumin (AGE-BSA) to the rat tail tendon collagen-coated 96-well plate (P02769 25-607): as the sequence (P02769 25-607) above
Chain of AGE-crosslinks that form when AGE-modified BSA (AGE-BSA) is allowed to react with unmodified, native collagen (P02769 25-607): as above

Structure (SMILES)	pIC50 [2]	Breaking Anti-AGE ([3]; at 30 mM)	Breaking Anti-BSA ([3]; at 30 mM) [%]	inhibition at 10000 µM [2] [%]	other results
Cc1c(CCO)sc[n+]1CC(=O)c1ccc2ccccc2c1.[Br-] [3-(2-(2′-naphthyl)-2-oxoethyl]-4-methyl-5-(2′-hydroxyethyl)-thiazolium bromide]					Percent Inhibition (percent breaking of RBC-IgG) [1]: 40 ± 24 @ 19 days %; Relative Cross-link Inhibition (at 10 mM) ([2]; at 10 mM): 61%; Breaking Anti-AGE ([3]; at 10 mM): 52%; Breaking Anti-BSA ([3]; at 10 mM): 61%
Cc1csc[n+]1CC(N)=O.[Br-] [3-(2-amino-2-oxoethyl)-4-methyl-thiazolium bromide]	3.15	89%	44		
NC(=O)C[n+]1csc2ccccc21.[Br-] [3-(2-amino-2-oxoethyl)-benzothiazolium bromide]	4.70				Breaking Anti-AGE ([3]; concentration not given): 77%; Breaking Anti-BSA ([3]; concentration not given): 65%; IC50 [3, 6]: 0.4 mM
COC(=O)C[n+]1csc(C)c1C.[Br-] [3-(2-methoxy-2-oxoethyl)-4,5-dimethylthiazolium bromide]	3.32	63%	47		
COC(=O)C[n+]1cscc1C.[Br-] [3-(2-methoxy-2-oxoethyl)-4-methylthiazolium bromide]		54%	51	58	
COC(=O)C[n+]1csc(C)c1.[Br-] [3-(2-methoxy-2-oxoethyl)-5-methyl-thiazolium bromide]	2.49	72%	27		
COC(=O)C[n+]1csc2ccccc21.[Br-] [3-(2-methoxy-2-oxoethyl)-benzothiazolium bromide]	< 2.00	66%	37	35	
Cc1sc[n+](CC(=O)c2ccccc2)c1C.[Br-] [3-(2-phenyl-2-oxoethyl)-4,5-dimethylthiazolium bromide]		56%/ND (30)		37	
Cc1c(CCO)sc[n+]1CC(=O)c1ccccc1.[Br-] [3-(2-phenyl-2-oxoethyl)-4-methyl-5-(2-hydroxyethyl)-thiazolium bromide]	< 2.00	67%	13	36	
C=Cc1sc[n+](CC(=O)c2ccccc2)c1C.[Br-] [3-(2-phenyl-2-oxoethyl)-4-methyl-5-vinyl-thiazolium bromide]					Percent Inhibition (percent breaking of RBC-IgG) [1]: 58 ± 21 ® 19 days %; Breaking Anti-AGE ([3]; at 1 mM): 62%; Breaking Anti-BSA ([3]; at 1 mM): 82%; IC50 ([3]; detection with anti-BSA antibody, read-out: IC50 (mM) Anti-BSA): 0.1 mM
Cc1csc[n+]1CC(=O)c1ccccc1.[Br-] [3-(2-phenyl-2-oxoethyl)-4-methylthiazolium bromide]	2.25	68%	66		
O=C(C[n+]1ccsc1)c1ccccc1.[Br-] [3-(2-phenyl-2-oxoethyl)thiazolium bromide]	1.95			34	reaction with 1-phenyl-1,2-propanedione to produce benzoic acid [4]: rapid and readily proceeded; Breaking Anti-AGE ([3]; concentration not given): 73%; Breaking Anti-BSA ([3]; concentration not given): 98%; release of BSA from the pre-formed AGE-mediated complexes [5]: concentration-dependent release of BSA
O=C(O)C[n+]1csc2ccccc21.[Br-] [3-(carboxymethyl)-benzothiazolium bromide]		63.7%	17.9	16	
Cc1c[n+](CC(=O)c2cc(C(C)(C)C)c(O)c(C(C)(C)C)c2)cs1 [3-[2-(3′,5′-di-tert-butyl-4′-hydroxyphenyl)-2-oxoethyl)-5-methyl-thiazolium bromide]	3.11				Percent Inhibition (percent breaking of RBC-IgG) [1]: 65 ± 15 @ 19 days %; inhibition at 1000 µM ([2]; read-out: Relative Cross-link Inhibition): 69%; Breaking Anti-AGE ([3]; at 1 mM): 65%; Breaking Anti-BSA ([3]; at 1 mM): 69%; Breaking Anti-AGE ([3]; at 10 mM): 48%; Breaking Anti-BSA ([3]; at 10 mM): 49%; IC50 [3, 6]: 3 mM
Cc1csc[n+]1CC(=O)c1cc(C(C)(C)C)c(O)c(C(C)(C)C)c1.[Br-] [3-[2-(3′,5′-di-tert-butyl-4′-hydroxyphenyl)-2-oxoethyl]-4-methyl-thiazolium bromide]					Relative Cross-link Inhibition ([2]; 0.3 mM): 24% @ 0.3 mM; Breaking Anti-AGE ([3]; at 0.3 mM): 14%; Breaking Anti-BSA ([3]; at 0.3 mM): 2%
Cc1c(CCOCc2c(Cl)cccc2Cl)sc[n+]1N.Cc1cc(C)c(S(=O)(=O)[O-])c(C)c1 [3-amino-4-methyl-5-(2(2′,6′-dichlorobenzyloxy)ethyl]-thiazolium mesitylenesulfonate]					Relative Cross-link Inhibition ([2]; 3 mM): 26.5% (3 mm); Breaking Anti-AGE ([3]; at 10 mM): 31%; Breaking Anti-BSA ([3]; at 10 mM): 54%
